Assay results: patent US20110237455A1, “ARRAY ANALYSIS FOR ONLINE DETECTION” (EPPENDORF AG, priority 2010, published 2011)
“Also recorded” adds a separate entry of the source.

Key:
[1] = Absorbance spectrum of light absorbing agents; format: physicochemical; conditions: light absorbing agent at 1%; for Absorbance spectrum (estimated min-max): estimated width of band covering around 90% of the dye absorbance
From the text: (§1) Table 1 summarizes the properties of different light absorbing agents tested according to the invention. The Table presents the absorbance peak and the estimated width of the absorbance band, based on the experimental spectra covering around 90% of the dye absorbance. The intrinsic fluorescence of the agents at the emission wavelength of 570 nm (green channel) or at the emission of 666 nm (red channel) is indicated. Intrinsic fluorescence is expressed as the percentage of the fluorescence compared to cy3 fluorescence if present at 1 μM for green channel (=100%) or Oyster645 fluorescence if present at 1 μM for red channel (=100%). Experimental details are given in example 4.

[2] = system: SuperSalt Taq Polymerase; assay: Compatibility of dyes with PCR amplification (no inhibition of the PCR); format: biochemical; conditions: highest tested concentration which did not inhibit the PCR
Procedure: The Table gives the upper concentration of the agent at which there is no inhibition of the PCR. Two concentrations of Taq polymerase were compared: 5 and 10 units. Experimental details are given in example 3.
PCR was designed for the amplification of the 35 promoter element of DNA sample of a genetically modified organism (GMO).
For each tested light absorbing agent, PCR were performed with different concentrations of agent: 0.005, 0.01, 0.02, 0.05, 0.1, 0.5, 1 and 2% and either 5 U or 10 U of Taq polymerase in PCR mix. Controls tubes were performed without light absorbing agent with 5 U or 10 U of enzyme.
The PCR performed in PCR tubes in a thermocycler (Eppendorf, Hamburg, Germany). Samples were pre incubated for 10 min at 25° C. and then were first denatured at 94° C. for 3 min. Then 40 cycles of amplification were performed consisting of 30 sec at 95° C., 90 sec at 60° C. and 30 sec at 72° C.
After PCR, 1 μL of the PCR product was analyzed by electrophoresis (Agilent Technologies, 2100 Bioanalyzer). The expected size of the amplicon was 79 bp.

[3] = Intrinsic fluorescence of light absorbing agents at the emission wavelengths (green/red channel); format: physicochemical; conditions: for Intrinsic fluorescence (emission 666 nm) in % / Intrinsic fluorescence (emission 570 nm) in %: agent at 1%; for Intrinsic fluorescence (emission 666 nm) in %: compared to Oyster645 fluorescence at 1 μM (=100%); for Fluorescence at the emission wavelength of 570 nm (in words) / Intrinsic fluorescence (emission 570 nm) in %: green channel; for Intrinsic fluorescence (emission 570 nm) in %: compared to cy3 fluorescence at 1 μM (=100%)
From the text: This concept is exemplified in Table 1. The dye Azure A is a good example. It can be used for the reduction of the fluorescence of a solution at the excitation/emission wavelength of 532/570 (green channel). […] However, the dye is fluorescent at the emission wavelength of 666 nm used in the red channel.
The dye Azure A is thus not capable of reducing the fluorescent of the solution beyond the intrinsic fluorescence of the light absorbing agent at the emission wavelength in the red channel. In presence of this agent, the fluorescence is about 38% (data not shown) the fluorescence value of the solution in the absence of light absorbing agent (=100%).
as §1

Compound | Absorbance spectrum peak [1] | Absorbance spectrum (estimated min-max) [1] | Maximum concentration in PCR (%) with 5 U Taq polymerase [2] [%] | Intrinsic fluorescence (emission 666 nm) in % ([3]; red channel) [%] | Fluorescence at the emission wavelength of 570 nm (in words) [3] | Fluorescence at the emission wavelength of 666 nm (in words) ([3]; red channel) | Fluorescence of the solution in presence of the agent ([3]; red channel, solution without light absorbing agent = 100%, data not shown) | Intrinsic fluorescence (emission 570 nm) in % [3] [%] | Maximum concentration in PCR (%) with 10 U Taq polymerase [2] [%]
O=C1/C(=C2\Nc3ccc(S(=O)(=O)[O-])cc3C2=O)Nc2ccc(S(=O)(=O)[O-])cc21.[Na+].[Na+] [(C) E132, E132] | 609 nm | 525-675 | 0.05 |  |  |  |  |  | 
CN(C)c1ccc2nc3ccc(N)cc3[s+]c2c1.[Cl-] [(E) Azure A, Azure A] | 636 nm | 450-700 |  | 38 | does not fluoresce | fluorescent | about 38% |  | 
O=S(=O)([O-])c1cc(S(=O)(=O)[O-])c2c(N=Nc3ccc(S(=O)(=O)[O-])c4ccccc34)c(O)ccc2c1.[Na+].[Na+].[Na+] [(G) E124, E124] | 508 nm | <400-585 |  | 18 | fluorescent | fluorescent |  | 18 | 
CC(=O)Nc1ccc(S(=O)(=O)[O-])c2cc(S(=O)(=O)[O-])c(N=Nc3ccc(N=Nc4ccc(S(=O)(=O)[O-])cc4)c4ccc(S(=O)(=O)[O-])cc34)c(O)c12.[Na+].[Na+].[Na+].[Na+] [(J) Black Brilliant, Black Brilliant] | 571 nm | 475-670 | 0.05 |  |  |  |  |  | 0.1
CCN(Cc1cccc(S(=O)(=O)[O-])c1)c1ccc(C(=C2C=CC(=[N+](CC)Cc3cccc(S(=O)(=O)[O-])c3)C=C2)c2ccccc2S(=O)(=O)[O-])cc1.[Na+].[Na+] [(L) E133, E133] | 635 nm | 525-690 | 0.05 | 33 |  | shows a basal fluorescence; also recorded: fluorescent |  |  | 0.1
Black Intense [(A) Black Intense] | 565 nm | <400-675 | 0.05 |  |  |  |  |  | 0.1
Blue Dextran [(B) Blue Dextran] |  |  | 0.5 |  |  |  |  |  | 1
Blue Intense [(K) Blue Intense] | 635 nm | 525-690 | 0.05 | 47 |  | fluorescent |  |  | 0.1
Brilliant Blue [(F) Brilliant Blue] | 585 nm | 500-690 |  |  |  |  |  |  | 
Ferritin [(H) Ferritin] | (no peak) | below 500 |  | 15 | fluorescent | fluorescent |  | 40 | 
Melanine [(M) Melanine] |  | below 700 |  |  |  |  |  |  | 
